Where “and” joins values, the source holds several entries; their conditions need not be identical. Equal entries are not always repeated. Inconclusive results and toxic doses are left out. The calls were made as follows: active = survival T/C of 150% or more; inactive = T/C below 125% in these data.
Test system: CD2F1 mice, L1210 leukemia ip, survival T/C
Assay: NCI In Vivo Anticancer Drug Screen. Data for tumor model L1210 Leukemia (intraperitoneal) in CD2F1 (CDF1) mice
Details: higher = longer survival
Summary of the method: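 Mice carrying a transplanted tumor received test compound or vehicle alone. The value is the measurement in the treated group divided by that in the vehicle-treated control group.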

[1] = endpoint: mean survival time, dose: 50.0 mg/kg/injection, schedule: Q01DX009 (ip), vehicle: Klucel (hydroxypropylcellulose) (HPC)
[2] = endpoint: mean survival time, dose: 100.0 mg/kg/injection, schedule: Q01DX009 (ip), vehicle: Klucel (hydroxypropylcellulose) (HPC)
[3] = endpoint: mean survival time, dose: 200.0 mg/kg/injection, schedule: Q01DX009 (ip), vehicle: Klucel (hydroxypropylcellulose) (HPC)
[4] = endpoint: mean survival time, dose: 75.0 mg/kg/injection, schedule: Q01DX001 (ip), vehicle: saline
[5] = endpoint: mean survival time, dose: 100.0 mg/kg/injection, schedule: Q01DX001 (ip), vehicle: saline with Tween-80
[6] = endpoint: mean survival time, dose: 200.0 mg/kg/injection, schedule: Q01DX001 (ip), vehicle: saline with Tween-80
[7] = endpoint: mean survival time, dose: 100.0 mg/kg/injection, schedule: Q04DX003 (ip), vehicle: saline

Measured: T/C

O=c1ssc(=Nc2ccccc2)n1-c1ccccc1
inactive: endpoint: mean survival time, dose: 12.5 mg/kg/injection, schedule: Q01DX009 (ip), vehicle: Klucel (hydroxypropylcellulose) (HPC) 103 % of control | endpoint: mean survival time, dose: 25.0 mg/kg/injection, schedule: Q01DX009 (ip), vehicle: Klucel (hydroxypropylcellulose) (HPC) 93 % of control and 102 % of control | [1] 98 % of control and 110 % of control | [2] 103 % of control and 108 % of control | [3] 98 % of control and 102 % of control | endpoint: mean survival time, dose: 400.0 mg/kg/injection, schedule: Q01DX009 (ip), vehicle: Klucel (hydroxypropylcellulose) (HPC) 117 % of control and 104 % of control

CC/C=C(\C)C(CCC)(CN=O)C(=O)OCC (stereo unspecified)
inactive: [4] 101 % of control | endpoint: mean survival time, dose: 150.0 mg/kg/injection, schedule: Q01DX001 (ip), vehicle: saline 97 % of control | endpoint: mean survival time, dose: 300.0 mg/kg/injection, schedule: Q01DX001 (ip), vehicle: saline 95 % of control

O=C(NCO)c1ccccc1
inactive: [1] 96 % of control | [2] 96 % of control | [3] 96 % of control

CC(C)(C)c1ccc(OCCO)cc1
inactive: endpoint: mean survival time, dose: 100.0 mg/kg/injection, schedule: Q01DX009 (ip), vehicle: other 108 % of control | endpoint: mean survival time, dose: 100.0 mg/kg/injection, schedule: Q04DX003 (ip), vehicle: saline with Tween-80 100 % of control

OCC(O)COCC#Cc1ccccc1 (stereo unspecified)
inactive: endpoint: mean survival time, dose: 25.0 mg/kg/injection, schedule: Q01DX009 (ip), vehicle: water 97 % of control | endpoint: mean survival time, dose: 50.0 mg/kg/injection, schedule: Q01DX009 (ip), vehicle: water 92 % of control | endpoint: mean survival time, dose: 100.0 mg/kg/injection, schedule: Q01DX009 (ip), vehicle: water 101 % of control | endpoint: mean survival time, dose: 200.0 mg/kg/injection, schedule: Q01DX009 (ip), vehicle: water 101 % of control

NC(=S)c1cc(C(N)=S)[nH]n1
inactive: endpoint: mean survival time, dose: 6.25 mg/kg/injection, schedule: Q01DX005 (ip), vehicle: other 101 % of control | endpoint: mean survival time, dose: 12.5 mg/kg/injection, schedule: Q01DX005 (ip), vehicle: other 97 % of control | endpoint: mean survival time, dose: 25.0 mg/kg/injection, schedule: Q01DX005 (ip), vehicle: other 93 % of control | endpoint: mean survival time, dose: 50.0 mg/kg/injection, schedule: Q01DX005 (ip), vehicle: other 95 % of control

CCCCC(C(=O)O)c1ccccc1 (stereo unspecified)
inactive: endpoint: mean survival time, dose: 100.0 mg/kg/injection, schedule: Q01DX009 (ip), vehicle: saline 98 % of control | endpoint: mean survival time, dose: 200.0 mg/kg/injection, schedule: Q01DX009 (ip), vehicle: saline 98 % of control | endpoint: mean survival time, dose: 400.0 mg/kg/injection, schedule: Q01DX009 (ip), vehicle: saline 101 % of control

O=C1c2ccccc2C(=O)N1Cl
inactive: [1] 96 % of control | endpoint: mean survival time, dose: 50.0 mg/kg/injection, schedule: Q04DX003 (ip), vehicle: other 100 % of control | [2] 89 % of control | endpoint: mean survival time, dose: 100.0 mg/kg/injection, schedule: Q04DX003 (ip), vehicle: other 104 % of control | [3] 93 % of control | endpoint: mean survival time, dose: 200.0 mg/kg/injection, schedule: Q04DX003 (ip), vehicle: other 110 % of control

CC(C)CCCC(C)C1CCC2C3CCC4=CC5(CCC4(C)C3CCC12C)SCCS5 (stereo unspecified)
inactive: [5] 87 % of control | [6] 91 % of control

COc1ccc(OC)c(NC(=O)Oc2ccc(F)cc2Cl)c1
inactive: endpoint: mean survival time, dose: 100.0 mg/kg/injection, schedule: Q01DX009 (ip), vehicle: saline with Tween-80 101 % of control | endpoint: mean survival time, dose: 200.0 mg/kg/injection, schedule: Q01DX009 (ip), vehicle: saline with Tween-80 104 % of control | endpoint: mean survival time, dose: 400.0 mg/kg/injection, schedule: Q01DX009 (ip), vehicle: saline with Tween-80 102 % of control

CCCN(CCC)C(=S)[S-].CCCN(CCC)C(=S)[S-].[Zn]
inactive: endpoint: mean survival time, dose: 75.0 mg/kg/injection, schedule: Q04DX003 (ip), vehicle: saline 95 % of control | endpoint: mean survival time, dose: 150.0 mg/kg/injection, schedule: Q04DX003 (ip), vehicle: saline 86 % of control | endpoint: mean survival time, dose: 300.0 mg/kg/injection, schedule: Q04DX003 (ip), vehicle: saline 101 % of control

COC(CN(C)Cc1c[nH]c2ccccc12)OC
inactive: [4] 107 % of control

COC(=O)C1C2C=CC(CC2)C1C(=O)OC (stereo unspecified)
inactive: [5] 103 % of control | [6] 88 % of control | endpoint: mean survival time, dose: 400.0 mg/kg/injection, schedule: Q01DX001 (ip), vehicle: saline with Tween-80 103 % of control

CC(=O)c1c(C)cc2cccc(OC3OC(CO)C(O)C(O)C3O)c2c1O (stereo unspecified) (tested in a mixture with another compound)
inactive: [7] 103 % of control | endpoint: mean survival time, dose: 200.0 mg/kg/injection, schedule: Q04DX003 (ip), vehicle: saline 104 % of control | endpoint: mean survival time, dose: 400.0 mg/kg/injection, schedule: Q04DX003 (ip), vehicle: saline 107 % of control

CCCCCCCCCCCC[n+]1ccc(C#N)cc1
inactive: endpoint: mean survival time, dose: 9.38 mg/kg/injection, schedule: Q01DX001 (ip), vehicle: saline 103 % of control | endpoint: mean survival time, dose: 18.75 mg/kg/injection, schedule: Q01DX001 (ip), vehicle: saline 94 % of control

Nc1nc(N)nc(Cl)n1
inactive: endpoint: mean survival time, dose: 25.0 mg/kg/injection, schedule: Q04DX002 (ip), vehicle: saline with Tween-80 90 % of control | endpoint: mean survival time, dose: 50.0 mg/kg/injection, schedule: Q04DX002 (ip), vehicle: saline with Tween-80 101 % of control | endpoint: mean survival time, dose: 100.0 mg/kg/injection, schedule: Q04DX002 (ip), vehicle: saline with Tween-80 90 % of control

CC(NC(=O)NCCCl)c1ccccc1 (stereo unspecified)
inactive: endpoint: mean survival time, dose: 25.0 mg/kg/injection, schedule: Q01DX009 (ip), vehicle: saline 88 % of control | endpoint: mean survival time, dose: 50.0 mg/kg/injection, schedule: Q01DX009 (ip), vehicle: saline 86 % of control

O=C(Nc1nccs1)C(F)(F)F
inactive: endpoint: median survival time, dose: 50.0 mg/kg/injection, schedule: Q01DX009 (ip), vehicle: saline 100 % of control | endpoint: median survival time, dose: 100.0 mg/kg/injection, schedule: Q01DX009 (ip), vehicle: saline 108 % of control | endpoint: median survival time, dose: 200.0 mg/kg/injection, schedule: Q01DX009 (ip), vehicle: saline 108 % of control | endpoint: median survival time, dose: 400.0 mg/kg/injection, schedule: Q01DX009 (ip), vehicle: saline 109 % of control

CC(C)OC(=O)C12Oc3ccc(-c4ccc5c(c4O)C(O)=C4C(=O)CC(C)C(O)C4(C(=O)OC(C)C)O5)c(O)c3C(O)=C1C(=O)CC(C)C2O (stereo unspecified)
inactive: endpoint: mean survival time, dose: 1.25 mg/kg/injection, schedule: Q01DX009 (ip), vehicle: saline with Tween-80 102 % of control | endpoint: mean survival time, dose: 2.5 mg/kg/injection, schedule: Q01DX009 (ip), vehicle: saline with Tween-80 95 % of control | endpoint: mean survival time, dose: 5.0 mg/kg/injection, schedule: Q01DX009 (ip), vehicle: saline with Tween-80 98 % of control

CCCCCCCCCCCCCCCCCCN1CCOCC1
inactive: endpoint: mean survival time, dose: 12.5 mg/kg/injection, schedule: Q01DX009 (ip), vehicle: saline with Tween-80 94 % of control | endpoint: mean survival time, dose: 25.0 mg/kg/injection, schedule: Q01DX009 (ip), vehicle: saline with Tween-80 102 % of control | endpoint: mean survival time, dose: 50.0 mg/kg/injection, schedule: Q01DX009 (ip), vehicle: saline with Tween-80 94 % of control

Nc1nc(N)c2c(n1)NCN(Cc1ccc(Cl)cc1Cl)C2
inactive: endpoint: mean survival time, dose: 0.75 mg/kg/injection, schedule: Q01DX009 (ip), vehicle: water 105 % of control | endpoint: mean survival time, dose: 1.5 mg/kg/injection, schedule: Q01DX009 (ip), vehicle: water 94 % of control | endpoint: mean survival time, dose: 3.0 mg/kg/injection, schedule: Q01DX009 (ip), vehicle: water 100 % of control | endpoint: mean survival time, dose: 6.0 mg/kg/injection, schedule: Q01DX009 (ip), vehicle: water 100 % of control | endpoint: mean survival time, dose: 12.0 mg/kg/injection, schedule: Q01DX009 (ip), vehicle: water 96 % of control | endpoint: mean survival time, dose: 24.0 mg/kg/injection, schedule: Q01DX009 (ip), vehicle: water 100 % of control | endpoint: mean survival time, dose: 37.5 mg/kg/injection, schedule: Q01DX009 (ip), vehicle: water 96 % of control | endpoint: mean survival time, dose: 75.0 mg/kg/injection, schedule: Q01DX009 (ip), vehicle: water 91 % of control

OC1C2CCN(CC2)C1CN1CC=C(c2ccccc2)CC1 (stereo unspecified)
inactive: [7] 100 % of control

O=S(=O)(N/N=C/c1ccncc1)c1ccccc1
inactive: endpoint: mean survival time, dose: 12.5 mg/kg/injection, schedule: Q04DX003 (ip), vehicle: water 98 % of control | endpoint: mean survival time, dose: 25.0 mg/kg/injection, schedule: Q04DX003 (ip), vehicle: water 98 % of control | endpoint: mean survival time, dose: 50.0 mg/kg/injection, schedule: Q04DX003 (ip), vehicle: water 104 % of control | endpoint: mean survival time, dose: 100.0 mg/kg/injection, schedule: Q04DX003 (ip), vehicle: water 106 % of control | endpoint: mean survival time, dose: 200.0 mg/kg/injection, schedule: Q04DX003 (ip), vehicle: water 112 % of control | endpoint: mean survival time, dose: 400.0 mg/kg/injection, schedule: Q04DX003 (ip), vehicle: water 108 % of control

O=[N+]([O-])c1ccc(/C=C/C2(CCl)OCCO2)cc1
inactive: endpoint: mean survival time, dose: 100.0 mg/kg/injection, schedule: Q01DX001 (ip), vehicle: Klucel (hydroxypropylcellulose) (HPC) 96 % of control | endpoint: mean survival time, dose: 200.0 mg/kg/injection, schedule: Q01DX001 (ip), vehicle: Klucel (hydroxypropylcellulose) (HPC) 92 % of control | endpoint: mean survival time, dose: 400.0 mg/kg/injection, schedule: Q01DX001 (ip), vehicle: Klucel (hydroxypropylcellulose) (HPC) 100 % of control

From PubChem BioAssay AID256 (DTP/NCI, 2004)
